# Assay results from ChEMBL document CHEMBL1138893, “Modulators of the human CCR5 receptor. Part 3: SAR of substituted 1-[3-(4-methanesulfonylphenyl)-3-phenylpropyl]-piperidinyl phenylacetamides” (Bioorg Med Chem Lett, 2006).
# Tests used:
# in vivo [1] = settings: rat, iv
# Description: Clearance in rat at 1-2 mg/kg, iv
# in vivo [2] = settings: rat, iv; remark: listed apart in the source
# in vivo [3] = settings: rat, iv; remark: listed apart in the source
# Description: Half life in rat at 1-2 mg/kg, iv
# [4] = biological target: C-C chemokine receptor type 5 (Homo sapiens, UniProt P51681); assay: biochemical
# C-C chemokine receptor type 5, sequence (P51681 whole entry): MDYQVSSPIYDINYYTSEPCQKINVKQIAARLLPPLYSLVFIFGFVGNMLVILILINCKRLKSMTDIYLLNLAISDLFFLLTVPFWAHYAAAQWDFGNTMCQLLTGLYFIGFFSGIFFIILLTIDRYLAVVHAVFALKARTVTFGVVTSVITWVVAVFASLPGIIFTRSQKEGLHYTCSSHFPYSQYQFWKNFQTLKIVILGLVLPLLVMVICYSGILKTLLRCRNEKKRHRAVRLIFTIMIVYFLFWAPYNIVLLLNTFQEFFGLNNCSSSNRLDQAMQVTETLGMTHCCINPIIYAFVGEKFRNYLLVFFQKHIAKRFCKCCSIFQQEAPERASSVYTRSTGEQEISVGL
# Description: Displacement of [125I]MIP-1-alpha to human recombinant CCR5 expressed in CHO cells
clearance (in vivo [1]),Vd (in vivo [2]),half-life (in vivo [3]),IC50 [4],SMILES
54 mL/min/kg,2.7 L/kg,54 min,–,C=CCN(C(=O)Cc1ccc(S(C)(=O)=O)cc1)C1CCN(CCC(c2ccccc2)c2ccccc2)CC1
10 mL/min/kg,1.7 L/kg,144 min,–,CCN(C(=O)Cc1ccc(S(C)(=O)=O)cc1)C1CCN(CCC(c2ccc(F)cc2)c2ccc(F)cc2)CC1
–,–,–,56 nM,CCN(C(=O)Cc1ccc(S(C)(=O)=O)cc1)C1CCN(CC[C@H](c2ccc(S(C)(=O)=O)cc2)c2cccc(C#N)c2)CC1
–,–,–,500 nM,CCN(C(=O)Cc1ccc(S(C)(=O)=O)cc1)C1CCN(CC[C@H](c2ccc(S(C)(=O)=O)cc2)c2cccc(C(C)(C)C)c2)CC1
